Measurements published in patent US7108996B2, “Method for increasing luminescence assay sensitivity” (Promega Corporation, priority 2000, dated 2006).
Where two headings read alike, the source gives them in different places.

Experiments:
[1] = tested on: Human embryonic kidney cells (293) stably expressing firefly luciferase (Luc+); test: Whole cell assay: firefly luminescence as indicator of cell viability; type: cell-based
Method: (§1) To determine the effect of organic compounds on cell viability and to determine the ability of such compounds to reduce autoluminescence in the presence of living cells, the following experiment was performed. Human embryonic kidney cells (293, ATCC, Rockville, Md.) were used to generate a cell line that stably expresses the firefly luciferase (Luc+) gene. This stable cell line was made using the pCl-neo vector (Promega Corporation, Madison Wis., USA) and inserting the Luc+ gene between the Xba I and Sal I sites. The stable cell line was prepared using standard methods and the transformed cells were grown in wells of a microtiter plate in the presence of DMEM medium containing 10% FBS and 0.15 mg/ml G418. For experimental purposes, duplicate plates of cells were prepared using 96 well microtiter plates. One plate was used to examine viability, and the other plate was used to examine the effect on autoluminescence.
To examine the effect of the organic compounds in cell viability, the media was removed from the cells and replaced with media containing the substrate for firefly luciferase, beetle luciferin, and the organic compounds at various concentrations. Passive diffusion of luciferin across the cell membrane together with the ATP oxygen and luciferase enzyme already contained within the cell, results in light production. Whereas, in compromised or damaged cells, intracellular ATP concentration is rapidly depleted, decreasing the firefly luminescence. The level of luminescence was compared to controls containing only luciferin to identify the effect of the compounds, if any, on light output as an indicator of cell viability.
(§2) Half of the microtiter plate contained no cells. To these wells, the same reagents were added as to the cell counterpart to measure cell-independent luminescence (i.e. background luminescence). The reagents (media with luciferin or coelenterazine, with or without compounds at various concentrations) were prepared as follows:
a) Reagent to Examine Firefly Luminescence (Cell Viability)
Luciferin substrate available from Promega Corporation, Madison Wis., USA was initially prepared in 10 mM sodium phosphate buffer, pH 7.4 as a 100 mM stock. This luciferin stock was used to make DMEM solution containing a final concentration of 2 mM luciferin.
Thiourea and 1-allyl-3-(2-hydroxyethyl)-2-thiourea were dissolved directly in this solution (DMEM/luciferin) to a final concentration of 30 mM. These were subsequently diluted to contain final compound concentrations of 10 mM and 1 mM.
Another compound 6-aza-thio-thymidine was dissolved in DMSO as a 750 mM stock. The 6-aza-thio-thymidine was subsequently added to the DMEM/luciferin reagent at a final concentration of 30 mM, 10 mM, and 1 mM, while maintaining a final DMSO concentration of 4%. A DMEM/luciferin reagent was used as the control with which to compare the effect of the compound and was also made to contain a final DMSO concentration of 4%.
Since it is believed that DMSO may help organic molecules permeat cell membranes, an additional control was included that consisted of thiourea (10 mM) reconstituted in DMSO (4%).
(§3) The cell culture medium was removed from the cells and replaced with medium containing substrate (+/−compound) and luminescence was measured immediately. […] Fold reduction in autoluminescence was calculated by dividing the background-subtracted autoluminescence in minus compound controls by the background-subtracted autoluminescence containing the compounds.

[2] = tested on: coelenterazine autoluminescence in Human embryonic kidney cells (293); test: Whole cell assay: reduction of coelenterazine autoluminescence in the presence of living cells; type: cell-based
Method: as §1
To determine the ability of the organic compounds to reduce autoluminescence, the media was removed from the cells and replaced with media containing the compounds at various concentrations and coelenterazine. Since there is no Renilla luciferase enzyme being expressed in these cells, the only luminescence observed is autoluminescence. The level of autoluminescence was compared to controls containing only coelenterazine to identify the effect of the compounds on reducing autoluminescence.
as §2
b) Reagent to Examine Reduction in Autoluminescence
Coelenterazine substrate was initially dissolved in Stop & Glob Reagent Solvent (both available from Promega Corporation, Madison Wis., USA) as a 30 mM stock. This coelenterazine stock was used to make DMEM media containing 0.6 mM coelenterazine as the final concentration. DMEM/coelenterazine reagents were made in a similar fashion as the DMEM/luciferin reagents described in a).
as §3

[3] = Method: (§4) The enzymatic luminescence measurement may have an autoluminescence component.
(§5) Format B Experiments were performed in a reaction volume of 150 μl Matthew's Buffer (referred to herein as MB) as either a standard MB composition or a modified MB composition as described below. As with Format A, reactions with and without Renilla luciferase were carried out to observe the effect of the organic compounds on assay sensitivity.
(§6) 1× Matthew's buffer standard composition consists of:
(§7) In order to observe the autoluminescence enhanced only by the detergent, for the majority of the experiments, BSA was replaced with porcine gelatin as the enzyme stabilizer at a final concentration of 0.15 mg/ml or 0.45 mg/ml. Taking all the variants into account the format can be sub-divided in 4 different versions:
(§8) Reactions were carried out in triplicate by adding each of the 50 μl portions to microtiter plate wells and mixing. The resulting relative light units generated per well was measured immediately using a Dynex MLX Microtiter plate luminometer or a Wallac 1450 MicroBeta Trilux plate luminometer (1 second/well) or alternatively, the plate was incubated at 22° C. and read after 5 minutes in the same fashion.
(§9) a) fold-decrease in non-enzymatic autoluminescence measurement in the presence of the compound when compared to the absence of the compound and, […]

Renilla luciferase [4] = target: T1, Renilla luciferase (Renilla reniformis, UniProt P27652); details: Format A
T1 sequence (P27652 whole entry): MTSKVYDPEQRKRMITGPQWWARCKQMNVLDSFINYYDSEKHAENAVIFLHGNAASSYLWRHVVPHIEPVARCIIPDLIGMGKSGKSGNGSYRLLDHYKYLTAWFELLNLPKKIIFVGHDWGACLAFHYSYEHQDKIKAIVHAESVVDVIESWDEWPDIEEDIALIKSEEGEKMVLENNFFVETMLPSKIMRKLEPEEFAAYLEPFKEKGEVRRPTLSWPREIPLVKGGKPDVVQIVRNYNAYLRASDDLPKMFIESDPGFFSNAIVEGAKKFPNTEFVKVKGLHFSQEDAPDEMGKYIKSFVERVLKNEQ
Method: as §4
(§10) Format A Assays were performed in the presence of Steady Glo® reagent (SG) and Stop & Glo® reagent (S+G), (Promega Corporation, Madison Wis.). A total reaction volume of 150 μl consisted of:
(§11) 50 μl F-12 (Ham) media+1 mg/ml gelatin (with or without enzyme^1)
(§12) 50 μl S+G (containing substrate^2)
(§13) 50 μl SG ^1 Renilla luciferase enzyme was added to F-12 cell culture media containing 1% gelatin, to a concentration of approximately 2.5 ng/50 μl media. Reactions in the absence of Renilla luciferase reveal the effect of the compound on autoluminescence while reactions in the presence of enzyme reveal the effect of the compound on Renilla luciferase-catalyzed luminescence.^2 The S+G reagent was prepared as per manufacturer's instructions, with the exception that for these experiments a S+G solvent three times more concentrated than normal was used to resuspend the S+G substrate.
(§14) The compound to be tested was re-suspended in either SG or S+G reagent to a final concentration of SG or S+G of (1×). The compound was added so the final concentration in the 150 μl total volume would be that listed in Table 1 and the reagent was diluted to the a final of 50 μl with water. For controls, the SG or S+G reagent was brought up to 50 μl with water or with the solvent used to dissolve the compound of interest. For example, if a compound needed to be dissolved in DMSO (dimethyl sulphoxide), an equal volume of DMSO was added to the control reaction. Unless otherwise indicated, the compounds were first dissolved in water.
(§15) For each concentration of a particular compound, a mixture containing all of the components in sufficient amounts for four reactions (i.e. 200 μl media, 200 μl SG, 200 μl S+G) was assembled. From this mixture, 150 μl was dispensed into triplicate wells on a 96-well plate. Alternatively, reactions were sometimes assembled in each well of the plate by adding each of the 50 μl portions and mixing. The plate was incubated at 22° C. and after 5 minutes the luminescence was measured using a Dynex plate luminometer (1 second measurement per well).
(§16) b) effect of the compound on enzymatic luminescence measurement in the presence of the compound when compared to control samples lacking only the compound.

Renilla luciferase [5] = target: T1, Renilla luciferase
Method: as §4, §5, §6, §7, §8, §16

[6] = remark: listed apart in the source
Method: as §4, §10, §11, §12, §13, §14, §15, §9

[7] = 1 mM compound, no additives to media
[8] = 10 mM compound, no additives to media
[9] = 30 mM compound, no additives to media
[10] = 1 mM compound, 4% DMSO in media
[11] = 10 mM compound, 4% DMSO in media
[12] = 30 mM compound, 4% DMSO in media
[13] = 3 mM compound, Format B3 (gelatin, detergent)
[14] = 3 mM compound, Format B3 with Tween-20
[15] = 3 mM compound, Format B4 + 10 mM sodium hydrosulfate
[16] = 10 mM compound, Format B4 (gelatin, no detergent)
[17] = 100 mM compound, Format B3 (gelatin, detergent)
[18] = 100 mM compound, Format B4 (gelatin, no detergent)
[19] = 10 mM compound, Format B3 (gelatin, detergent)
[20] = 30 mM compound, Format B3 (gelatin, detergent)
[21] = 30 mM compound, Format B4 (gelatin, no detergent)

In the case of `C=CCNC(=S)NCCO` [1-Allyl-3-(2-hydroxyethyl)-2-thiourea, 1-allyl-3-(2-hydroxyethyl)-2-thiourea], the “Effects on firefly luminescence” value [1, 7] is reported as “No”, the “Effects on firefly luminescence” value [1, 8] is reported as “Yes, decreases” and the “Effects on firefly luminescence” value [1, 9] is reported as “Yes, decreases”. The “Fold Decrease in Autoluminescence” value [2, 7] was 3.5 fold, the “Fold Decrease in Autoluminescence” value [2, 8] was 12 fold and the “Fold Decrease in Autoluminescence” value [2, 9] was 35 fold.
In the case of `Cc1nn([C@H]2C[C@H](O)[C@@H](CO)O2)c(=S)[nH]c1=O` [6-aza-thio-thymidine], the “Effects on firefly luminescence” value [1, 10] is reported as “No”, the “Effects on firefly luminescence” value [1, 11] is reported as “No” and the “Effects on firefly luminescence” value [1, 12] is reported as “Yes, decreases”. For the same molecule, the “Fold Decrease in Autoluminescence” value [2, 10] was 3 fold, the “Fold Decrease in Autoluminescence” value [2, 11] was 23 fold and the “Fold Decrease in Autoluminescence” value [2, 12] was 525 fold.
With `NC(N)=S` [Compound 1] the Fold decrease autoluminescence [3, 13] was 120 fold, the Fold decrease autoluminescence ([3]; 3 mM compound, Format B3 + 10 mM sodium hydrosulfate) was 21.6 fold and the Fold decrease autoluminescence [3, 14] was 100 fold. It also gave a Fold decrease autoluminescence ([3]; 3 mM compound, Format B3 with Zwittergent) of 6 fold, a Fold decrease autoluminescence [3, 15] of 2.6 fold and a Fold decrease autoluminescence [3, 16] of 2 fold. The Fold decrease autoluminescence ([3]; 50 mM compound, Format B3 + 17% DMSO) was 500 fold, the Fold decrease autoluminescence ([3]; 50 mM compound, Format B4 + 17% DMSO) was 15 fold and the Fold decrease autoluminescence [3, 17] was 290 fold. The Fold decrease autoluminescence [3, 18] was 8.5 fold, the Fold decrease autoluminescence ([3]; 316 mM compound, Format B2 (BSA, no detergent)) was 2 fold and the Effect on luminescence (Renilla luciferase [4]; 33 mM compound) was “No effect”. For the same molecule, the Effect on luminescence (Renilla luciferase [5]; [13]) was “No effect”, the Effect on luminescence (Renilla luciferase [5]; [14]) was “No effect” and the Effect on luminescence (Renilla luciferase [5]; [15]) was “No effect”. The Effect on luminescence (Renilla luciferase [5]; [17]) was “No effect” and the Fold decrease autoluminescence ([6]; 33 mM compound, Format A) was 15 fold.
For `NC(N)=[Se]` [Compound 2], the Fold decrease autoluminescence [3, 19] was 70 fold, the Effect on luminescence (Renilla luciferase [4]; 10 mM compound) was “No effect” and the Effect on luminescence (Renilla luciferase [5]; [19]) was “No effect”. It also gave a Fold decrease autoluminescence ([6]; 10 mM compound, Format A) of 100 fold.
Work on `CC(N)=S` [Compound 3] yielded a Fold decrease autoluminescence ([3]; 33 mM compound, Format B3 (gelatin, detergent)) of 545 fold, a Fold decrease autoluminescence ([3]; 33 mM compound, Format B4 (gelatin, no detergent)) of 3.4 fold and a Fold decrease autoluminescence ([6]; 33 mM compound, Format A) of 100 fold.
With `C=CCNC(=S)NCCO` [Compound 4] the Fold decrease autoluminescence [3, 20] was 500 fold, the Fold decrease autoluminescence [3, 21] was 3.9 fold and the Effect on luminescence (Renilla luciferase [4]; 10 mM compound) was “No effect”. For the same molecule, the Fold decrease autoluminescence ([6]; 10 mM compound, Format A) was 3 fold.
`S=C(Nc1ccccc1)Nc1cscn1` [Compound 5] gave a Fold decrease autoluminescence ([6]; 10 mM compound, Format A) of 115 fold.
`Cc1c[nH]c(=S)[nH]c1=O` [Compound 6] gave a Fold decrease autoluminescence ([3]; 32 mM compound, Format B3 + 33% DMSO) of 660 fold, a Fold decrease autoluminescence ([3]; 32 mM compound, Format B4 + 33% DMSO) of 120 fold and a Fold decrease autoluminescence ([6]; 32 mM compound, Format A + 17% DMSO) of 65 fold.
For `CON=C(C(=O)O)c1csc(N)n1` [Compound 7], the Fold decrease autoluminescence [3, 20] was 7 fold and the Fold decrease autoluminescence [3, 21] was 6.2 fold.
For `NCCS` [Compound 8], the Fold decrease autoluminescence [3, 20] was 20 fold, the Fold decrease autoluminescence [3, 21] was 3.5 fold and the Effect on luminescence (Renilla luciferase [4]; 100 mM compound) was “No effect”. For the same molecule, the Effect on luminescence (Renilla luciferase [5]; [20]) was “No effect” and the Fold decrease autoluminescence ([6]; 100 mM compound, Format A) was 6 fold.
In the case of `OC(CS)CC(O)CS` (stereo not shown) [Compound 9], the Fold decrease autoluminescence [3, 20] is reported as 13 fold, the Fold decrease autoluminescence [3, 21] is reported as 2.5 fold and the Fold decrease autoluminescence [3, 18] is reported as 3 fold. The Effect on luminescence (Renilla luciferase [5]; [21]) was “No effect”.
`CC(=O)NC(CS)C(=O)O` (stereo not shown) [Compound 11] gave a Fold decrease autoluminescence [3, 20] of 2 fold, a Fold decrease autoluminescence [3, 21] of 2.3 fold and a Fold decrease autoluminescence [3, 18] of 3.7 fold. The Effect on luminescence (Renilla luciferase [5]; [20]) was “No effect”.
For `N#C[S-].[K+]` [K SCN], the Fold decrease autoluminescence [3, 19] was 55 fold, the Fold decrease autoluminescence [3, 16] was 1.7 fold and the Effect on luminescence (Renilla luciferase [5]; [19]) was “No effect”.
In the case of `NC(N)=S` [thiourea], the “Effects on firefly luminescence” value [1, 7] is reported as “No”, the “Effects on firefly luminescence” value [1, 11] is reported as “No” and the “Effects on firefly luminescence” value [1, 8] is reported as “No”. The “Effects on firefly luminescence” value [1, 9] was “Yes, decreases”, the “Fold Decrease in Autoluminescence” value [2, 7] was 3.4 fold and the “Fold Decrease in Autoluminescence” value [2, 11] was 12 fold. For the same molecule, the “Fold Decrease in Autoluminescence” value [2, 8] was 16 fold and the “Fold Decrease in Autoluminescence” value [2, 9] was 40 fold.
